# In US11000485B2, “Substituted hydroxystilbenes as AhR and Nrf2 modulators and their therapeutic applications” (Resolvex Pharmaceuticals Inc., priority 2017, dated 2021):
# Key:
# [1] = target: T1, recombinant human PDE4B1 enzyme (Homo sapiens, UniProt Q07343); assay: PDE4B1 radiometric enzyme assay; assay type: biochemical; conditions: 1 μM cAMP
# T1 construct: host or cells: baculoviral system
# Procedure: Assays were performed using recombinant human PDE4B1 enzyme expressed in a baculoviral system. […] The reactions were performed at 1 μM of cAMP. The test articles were each tested at 0.2 μM and 20 μM in triplicates.
# Jurkat cells [2] = assay: Cell viability (MTS); assay type: cell-based; conditions: 48 hours
# Procedure: (§1) Cells were cultured in RPMI-1640 containing 10% FBS (Jurkat and THP-1) or DMEM containing 10% FBS (A549 and MDA-MB-435). On Day 1, 1-5×10^4 cells per well in 100 μL of the cell culture medium containing 0.5% FBS were seeded into a 96-well flat bottom plate. On Day 2, the test compounds were added to the culture at different concentrations in triplicates. The controls include triplicates of no compound treatment and cell culture medium without cells. The cells were incubated at 5% CO2, 37° C. for 48 hours. On Day 4, MTS reagent was added to each well and incubated at 37° C. for 4 hours. The absorbance was read at 490 nm. The percentage of inhibition was calculated using the formula: [1-(experiment reading-background reading)/(negative control reading-background reading)]×100.
# MDA-MB-435 cells [3] = assay: Cell viability (MTS); assay type: cell-based; conditions: 48 hours
# Procedure: as §1
# THP1 cells = assay: Cell viability (MTS); assay type: cell-based; conditions: 48 hours
# Procedure: as §1
# Jurkat cells [4] = assay: Cell proliferation ([3H]-thymidine); assay type: cell-based; conditions: 48 hours, read-out: Anti-proliferation IC50, Jurkat
# Procedure: (§2) Cells were cultured in RPMI-1640 containing 10% FBS (Jurkat) or DMEM containing 10% FBS (MDA-MB-435). On Day 1, 1×10^4 cells were seeded into one well of a 96-well white ISOPLATE™ with 0.5% FBS. The cells were cultured at 5% CO2, 37° C. overnight. On Day 2, the diluted test compounds were added into each well in a total volume of 100 μL of cell culture medium. For each cell line were set up three wells containing cells and only diluted DMSO as a negative (vehicle) control, and three wells without cells but containing the same volume and type of cell culture medium as background control. The cells were incubated at 5% CO2, 37° C. for 24 hours. On Day 3, 1 μL of [^3H]-thymidine was added into each well and incubation at 5% CO2, 37° C. was continued for another 24 hours. On Day 4, 30 μL of 50% TCA was added into each well and was incubated at 4° C. for 4 hours. Plates were washed with ddH2O four times and then air dried for 30 minutes followed by the addition of 100 μL of scintillation fluid into each well. The radioactivity was read using MICROBETA TRILUX™. The percentage of inhibition was calculated using the formula [1-(experiment reading-background reading)/(negative control reading-background reading)]×100.
# MDA-MB-435 cells [5] = assay: Cell proliferation ([3H]-thymidine); assay type: cell-based; conditions: 48 hours, read-out: Anti-proliferation IC50, MDA-MB-435
# Procedure: as §2
# T1 sequence (Q07343 whole entry): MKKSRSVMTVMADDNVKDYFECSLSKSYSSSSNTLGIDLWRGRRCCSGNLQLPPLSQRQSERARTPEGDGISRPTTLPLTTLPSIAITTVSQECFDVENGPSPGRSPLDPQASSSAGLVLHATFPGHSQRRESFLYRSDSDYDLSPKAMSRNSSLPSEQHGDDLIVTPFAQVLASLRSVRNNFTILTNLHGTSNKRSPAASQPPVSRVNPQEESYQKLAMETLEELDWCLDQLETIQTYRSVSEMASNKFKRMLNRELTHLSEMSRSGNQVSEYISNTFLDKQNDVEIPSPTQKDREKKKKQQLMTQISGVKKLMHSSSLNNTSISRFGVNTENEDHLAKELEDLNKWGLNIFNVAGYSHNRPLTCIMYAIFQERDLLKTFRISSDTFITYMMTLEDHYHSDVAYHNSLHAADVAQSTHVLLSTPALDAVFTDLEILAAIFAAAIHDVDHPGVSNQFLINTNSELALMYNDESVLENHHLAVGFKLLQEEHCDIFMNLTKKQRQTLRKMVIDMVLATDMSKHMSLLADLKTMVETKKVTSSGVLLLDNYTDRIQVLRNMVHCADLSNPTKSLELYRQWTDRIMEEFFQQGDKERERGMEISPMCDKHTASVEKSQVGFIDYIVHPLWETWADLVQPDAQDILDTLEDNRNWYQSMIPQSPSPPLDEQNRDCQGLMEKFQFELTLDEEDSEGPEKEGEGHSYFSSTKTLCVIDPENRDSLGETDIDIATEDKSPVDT
SMILES,Inhibitory activity on PDE4B1 enzyme ([1]; 0.2 μM compound),Inhibitory activity on PDE4B1 enzyme ([1]; 20 μM compound),IC50 (Jurkat cells [2]) [nM],IC50 (MDA-MB-435 cells [3]) [nM],IC50 (THP1 cells) [nM],IC50 (Jurkat cells [4]) [nM],IC50 (MDA-MB-435 cells [5]) [nM]
Oc1cc(/C=C/c2ccc(F)cc2)ccc1C1CCCCCC1 [Compound 27],+ (“+” is 15-30% inhibition),+++ (“+++” is greater than 50% inhibition),,,,,
N#Cc1ccc(/C=C/c2ccc(C3CC3)c(O)c2)c(C#N)c1 [Compound 17],,,7980,1780,2740,1380,1660
CC(C)c1ccc(/C=C/c2ccccc2)cc1O [Compound 1],,,2160,25000,2250,,
Oc1cc(/C=C/c2ccccc2)ccc1C1CC1 [Compound 11],,,,,,1710,4250
Oc1cc(/C=C/c2ccc(F)cc2F)ccc1C1CCCC1 [Compound 21],,,3730,1950,6930,690,1770
Oc1cc(/C=C/c2c(F)cccc2F)ccc1C1CCCC1 [Compound 22],,,2960,1720,2460,,
